# From ChEMBL document CHEMBL1201862, “PubChem BioAssay data set” (2004)
#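 48-hour exposure; five concentrations; linearly interpolated endpoints. GI50: concentration for 50% inhibition of growth.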 Activity calls are given as the source filed them. Cut-off read from the data, not from the text of the source: active = GI50 up to about 1.1 µM and inactive = higher. Residues, ends and D or L forms follow the SMILES beside them.
# What was measured:
# Assay in all cases: DTP human tumour cell line panel, 48 h
# SK-OV-3 = test system: SK-OV-3
# HOP-62 = test system: HOP-62
# HCT-116 = test system: HCT-116
# OVCAR-3 = test system: OVCAR-3
# A498 = test system: A498
# LOX IMVI = test system: LOX IMVI
# HCC 2998 = test system: HCC 2998
# SK-MEL-28 = test system: SK-MEL-28
# NCI/ADR-RES = test system: NCI/ADR-RES
# TK-10 = test system: TK-10
# ACHN = test system: ACHN
# KM12 = test system: KM12
# HOP-92 = test system: HOP-92
# SF-295 = test system: SF-295
# 786-0 = test system: 786-0
# OVCAR-5 = test system: OVCAR-5
# UACC-62 = test system: UACC-62
# MDA-MB-435 = test system: MDA-MB-435
# M14 = test system: M14
# MDA-N = test system: MDA-N
SMILES,GI50 (SK-OV-3),GI50 (HOP-62),GI50 (HCT-116),GI50 (OVCAR-3),GI50 (A498),GI50 (LOX IMVI),GI50 (HCC 2998),GI50 (SK-MEL-28),GI50 (NCI/ADR-RES),GI50 (TK-10),GI50 (ACHN),GI50 (KM12),GI50 (HOP-92),GI50 (SF-295),GI50 (786-0),GI50 (OVCAR-5),GI50 (UACC-62),GI50 (MDA-MB-435),GI50 (M14),GI50 (MDA-N)
C(=N/Nc1ccccn1)/c1cccnc1,> 100 µM (inactive),> 100 µM (inactive),> 100 µM (inactive),> 100 µM (inactive),> 100 µM (inactive),> 100 µM (inactive),> 100 µM (inactive),87.7 µM (inactive),> 100 µM (inactive),> 100 µM (inactive),> 100 µM (inactive),68.7 µM (inactive),> 100 µM (inactive),> 100 µM (inactive),> 100 µM (inactive),> 100 µM (inactive),94.6 µM (inactive),> 100 µM (inactive),62.7 µM (inactive),> 100 µM (inactive)
CCCCc1ccc(Nc2nc(Cl)c3c(ncn3COCCOC(C)=O)n2)cc1,17.1 µM (inactive),16.7 µM (inactive),17.3 µM (inactive),21.2 µM (inactive),20.5 µM (inactive),17.5 µM (inactive),19.9 µM (inactive),,23.5 µM (inactive),20.4 µM (inactive),18.5 µM (inactive),18 µM (inactive),18.6 µM (inactive),14.4 µM (inactive),20.1 µM (inactive),18.5 µM (inactive),16.6 µM (inactive),17.7 µM (inactive),17.9 µM (inactive),18.8 µM (inactive)
COc1ccc(-n2c(=O)n(-c3ccccc3)c(=O)n2-c2ccc(OC)cc2)cc1,> 100 µM (inactive),> 100 µM (inactive),> 100 µM (inactive),> 100 µM (inactive),> 100 µM (inactive),> 100 µM (inactive),> 100 µM (inactive),> 100 µM (inactive),> 100 µM (inactive),> 100 µM (inactive),> 100 µM (inactive),> 100 µM (inactive),27.7 µM (inactive),> 100 µM (inactive),> 100 µM (inactive),> 100 µM (inactive),> 100 µM (inactive),> 100 µM (inactive),> 100 µM (inactive),> 100 µM (inactive)
CC(=O)N1c2ccccc2C23CCN4CC5=CCOC(O)C(C5CC42)C13 (stereo unspecified),> 100 µM (inactive),,> 100 µM (inactive),> 100 µM (inactive),> 100 µM (inactive),> 100 µM (inactive),> 100 µM (inactive),> 100 µM (inactive),> 100 µM (inactive),> 100 µM (inactive),> 100 µM (inactive),> 100 µM (inactive),> 100 µM (inactive),> 100 µM (inactive),> 100 µM (inactive),> 100 µM (inactive),> 100 µM (inactive),> 100 µM (inactive),> 100 µM (inactive),> 100 µM (inactive)
CCc1ccccc1N1CCN(C(=O)c2cc(OC)c(OC)c(OC)c2)CC1,0.0375 µM (active),0.0217 µM (active),0.042 µM (active),0.0143 µM (active),0.0303 µM (active),0.0307 µM (active),0.0585 µM (active),0.251 µM (active),0.0151 µM (active),0.0248 µM (active),< 0.0137 µM (active),0.0231 µM (active),0.0977 µM (active),0.0134 µM (active),< 0.0149 µM (active),4.14 µM (inactive),0.0156 µM (active),< 0.01 µM (active),0.0135 µM (active),< 0.01 µM (active)
CC(=O)OCC1OC(n2c(-c3ccccc3)c(C(C)=O)c(-c3ccc(Cl)cc3)c(C#N)c2=S)C(OC(C)=O)C(OC(C)=O)C1OC(C)=O (stereo unspecified),> 100 µM (inactive),> 100 µM (inactive),83.2 µM (inactive),> 100 µM (inactive),> 100 µM (inactive),> 100 µM (inactive),> 100 µM (inactive),> 100 µM (inactive),> 100 µM (inactive),> 100 µM (inactive),> 100 µM (inactive),> 100 µM (inactive),0.601 µM (active),> 100 µM (inactive),> 100 µM (inactive),> 100 µM (inactive),> 100 µM (inactive),> 100 µM (inactive),> 100 µM (inactive),62.8 µM (inactive)
O=C(Cn1c(C(=O)/C=C/c2ccco2)nc2ccccc21)c1ccc(Cl)cc1,44.4 µM (inactive),46.8 µM (inactive),16.3 µM (inactive),31.5 µM (inactive),17.2 µM (inactive),13.8 µM (inactive),17.1 µM (inactive),26.6 µM (inactive),11.8 µM (inactive),25.1 µM (inactive),26.2 µM (inactive),14.9 µM (inactive),26.4 µM (inactive),,14.3 µM (inactive),> 100 µM (inactive),22.8 µM (inactive),12.1 µM (inactive),19.9 µM (inactive),17.1 µM (inactive)
Cc1noc(NS(=O)(=O)c2ccc(NC(=O)c3ccc4nc5ccccc5c(Nc5ccc(S(=O)(=O)Nc6onc(C)c6C)cc5)c4c3)cc2)c1C,> 100 µM (inactive),> 100 µM (inactive),> 100 µM (inactive),70.3 µM (inactive),> 100 µM (inactive),21 µM (inactive),> 100 µM (inactive),> 100 µM (inactive),> 100 µM (inactive),> 100 µM (inactive),> 100 µM (inactive),> 100 µM (inactive),> 100 µM (inactive),> 100 µM (inactive),56.8 µM (inactive),> 100 µM (inactive),> 100 µM (inactive),> 100 µM (inactive),> 100 µM (inactive),> 100 µM (inactive)
CCOC1OC(COC(=O)C(C)(C)C)C(O)CC1n1cc(C)c(=O)[nH]c1=O (stereo unspecified),,,> 100 µM (inactive),> 100 µM (inactive),> 100 µM (inactive),> 100 µM (inactive),> 100 µM (inactive),> 100 µM (inactive),> 100 µM (inactive),> 100 µM (inactive),> 100 µM (inactive),> 100 µM (inactive),> 100 µM (inactive),> 100 µM (inactive),> 100 µM (inactive),> 100 µM (inactive),> 100 µM (inactive),> 100 µM (inactive),> 100 µM (inactive),> 100 µM (inactive)
CN(C)CCCNc1nnc(NCCCN(C)C)c2c(=O)c3sccc3[nH]c12,12.9 µM (inactive),5.77 µM (inactive),9.46 µM (inactive),14.2 µM (inactive),41.4 µM (inactive),14 µM (inactive),6.68 µM (inactive),28.8 µM (inactive),8.15 µM (inactive),9.86 µM (inactive),5.85 µM (inactive),5.75 µM (inactive),35.8 µM (inactive),13.7 µM (inactive),4.59 µM (inactive),16.6 µM (inactive),14.2 µM (inactive),8.15 µM (inactive),11.7 µM (inactive),3.4 µM (inactive)
COc1ccc(/C=C2\N=C3NC(=O)C(N4CCCCC4)=C(N)N3C2=O)cc1,> 100 µM (inactive),,> 100 µM (inactive),,> 100 µM (inactive),> 100 µM (inactive),> 100 µM (inactive),> 100 µM (inactive),> 100 µM (inactive),47 µM (inactive),70.6 µM (inactive),> 100 µM (inactive),> 100 µM (inactive),73.6 µM (inactive),> 100 µM (inactive),> 100 µM (inactive),,> 100 µM (inactive),> 100 µM (inactive),> 100 µM (inactive)
CC(CC(C)[C@H]1CCC2[C@H]3C(CC(=O)[C@@]21C)[C@@]1(C)CCC(O)C[C@H]1C[C@@H]3O)C(=O)O (stereo partly specified),,> 100 µM (inactive),> 100 µM (inactive),,> 100 µM (inactive),> 100 µM (inactive),> 100 µM (inactive),> 100 µM (inactive),> 100 µM (inactive),> 100 µM (inactive),> 100 µM (inactive),> 100 µM (inactive),> 100 µM (inactive),,> 100 µM (inactive),> 100 µM (inactive),> 100 µM (inactive),> 100 µM (inactive),> 100 µM (inactive),> 100 µM (inactive)
C=C1C(=O)OC2CC3(C)CCCC(C)C3=CC12 (stereo unspecified),20.7 µM (inactive),,3.91 µM (inactive),,3.72 µM (inactive),1.57 µM (inactive),3.79 µM (inactive),2.65 µM (inactive),17.6 µM (inactive),2.46 µM (inactive),2.61 µM (inactive),12.6 µM (inactive),2.64 µM (inactive),13.1 µM (inactive),2.79 µM (inactive),11.2 µM (inactive),4.08 µM (inactive),2.94 µM (inactive),3.56 µM (inactive),3.18 µM (inactive)
CCC(C)C(NC(=O)C1CCCN1)C(=O)NC(C(=O)NCC(=O)NC(CC(N)=O)C(=O)NC(CC(C)C)C(=O)NC(CC(C)C)C(=O)NC(CCCCN)C(N)=O)C(C)C (stereo unspecified) (H-PIVGNLLK-NH2; configuration not given here),> 75 µM (inactive),> 75 µM (inactive),> 75 µM (inactive),> 75 µM (inactive),> 75 µM (inactive),> 75 µM (inactive),,> 75 µM (inactive),> 75 µM (inactive),> 75 µM (inactive),> 75 µM (inactive),> 75 µM (inactive),> 75 µM (inactive),> 75 µM (inactive),> 75 µM (inactive),> 75 µM (inactive),> 75 µM (inactive),> 75 µM (inactive),> 75 µM (inactive),> 75 µM (inactive)
